The values below come from PubChem BioAssay AID977605 (Broad Institute, 2014).

The structures appear in SMILES notation. Activity calls are given as the source filed them.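 How the source made its calls: active means fitted curve reaches 40% activation below the top valid tested dose, in every test run; inconclusive means test runs disagree on the call; inactive means the rest, including effects opposite to the expected direction.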

The first assay in a line: endothelial E-selectin upregulation by compounds – imaging, HUVEC, cherry-picked samples, dose response (AID 977605).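 Further: signal is the share of imaged cells scored positive for E-selectin.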 To be noted: HUVEC E-selectin immunostaining, at 19.5 µM (top of the series), percent of TNF-alpha response over vehicle.
`Cc1ccc(COc2ccc(/C=N/O)cc2)cc1`: the activation is -0.083% (inactive).

As to `CC(C)C(c1nnnn1C1CCCCC1)N1CCN(C(=O)c2ccco2)CC1` (stereo not given), the activation is -0.112% (inactive).

For `C[C@H]1CN([C@@H](C)CO)C(=O)Cc2cc(NS(=O)(=O)c3ccccc3)ccc2O[C@H]1CN(C)Cc1ccc(C(F)(F)F)cc1`, the activation is 10.6% (inactive).

Turning to `CCCC#Cc1ccc2c(c1)O[C@H](CN(C)C(C)=O)[C@H](C)CN([C@@H](C)CO)S2(=O)=O`, the activation was 0.607% (inactive).

In the case of `C[C@@H]1CN([C@@H](C)CO)C(=O)Cc2cc(NC(=O)c3ccncc3)ccc2O[C@H]1CN(C)Cc1ccc(Oc2ccccc2)cc1`, the activation was 0.031% (inactive).

For the molecule `C[C@H](CO)N1C[C@H](C)[C@H](CN(C)C(=O)c2ccc3c(c2)OCO3)Oc2cc(-c3ccccc3)ccc2S1(=O)=O`, the activation was -0.242% (inactive).

As for `CC(C)NC(=O)Nc1ccc2c(c1)C(=O)N([C@@H](C)CO)C[C@H](C)[C@H](CN(C)Cc1ccc(C(F)(F)F)cc1)O2`, the activation was 0.054% (inactive).

As for `C[C@@H]1CN([C@H](C)CO)C(=O)c2cccc(NC(=O)CCCCCC(=O)Nc3ccccc3N)c2O[C@H]1CN(C)C`, the activation was 0.064% (inactive).

As to `C[C@H]1CN([C@@H](C)CO)C(=O)c2cccc(NS(C)(=O)=O)c2O[C@@H]1CN(C)Cc1ccc(Oc2ccccc2)cc1`, the activation was 0.027% (inactive).

For `COc1ccc(N2CCN(C(=O)c3cccc(NC4=NC5CS(=O)(=O)CC5S4)c3)CC2)cc1` (stereo not given), the activation was -0.136% (inactive).

In the case of `Cc1ccc(CSc2nc3[nH]ncc3c(=O)[nH]2)cc1`, the activation is 24.6% (inactive).

`Cc1ccc(S(=O)(=O)N(C)C[C@H]2Oc3ccc(N(C)C)cc3C(=O)N([C@@H](C)CO)C[C@@H]2C)cc1`: the activation is 9.64% (inactive).

`C[C@@H]1CN([C@H](C)CO)C(=O)c2cc(Br)cnc2O[C@@H]1CN(C)C(=O)C1CC1`: the activation is -0.087% (inactive).

Take `OC(COC(c1ccccc1)c1ccccc1)CN1CCOCC1` (stereo not given): the activation was 2% (inactive).

For the molecule `Cc1cc(C(=O)Nc2cccc3c2O[C@@H](CN(C)S(=O)(=O)c2ccc(F)cc2)[C@@H](C)CN([C@H](C)CO)C3=O)n(C)n1`, the activation was 0.077% (inactive).

For `C[C@H](CO)N1C[C@H](C)[C@H](CN(C)Cc2ccncc2)Oc2ccc(NC(=O)CCC(F)(F)F)cc2CC1=O`, the activation was -0.107% (inactive).

`CC(C)CC#Cc1cnc2c(c1)C(=O)N([C@H](C)CO)C[C@@H](C)[C@H](CN(C)C(=O)c1ccc3c(c1)OCO3)O2`: the activation is -0.021% (inactive).

Regarding `COc1ccc(S(=O)(=O)Nc2cccc3c2O[C@H](CN(C)C(=O)Nc2c(C)noc2C)[C@H](C)CN([C@H](C)CO)C3=O)cc1`, the activation was -0.109% (inactive).

With `C[C@@H]1CN([C@@H](C)CO)C(=O)c2cccc(NS(=O)(=O)c3ccc(Cl)cc3)c2O[C@H]1CN(C)C(=O)Nc1ccc2c(c1)OCO2`, the activation is -0.05% (inactive).

As for `CCC(=O)Oc1cccc(C(=O)Nc2cccc(NC(=O)c3ccco3)c2)c1`, the activation was -0.083% (inactive).

As to `C[C@@H]1CN([C@H](C)CO)C(=O)c2cc(NC(=O)CCCCCC(=O)Nc3ccccc3N)ccc2O[C@@H]1CN(C)C(=O)Nc1ccc2c(c1)OCO2`, the activation was -0.103% (inactive).

On to `C[C@@H]1CN([C@@H](C)CO)C(=O)Cc2cc(NC(=O)Nc3ccc(F)cc3)ccc2O[C@H]1CN(C)Cc1ccc(C(=O)O)cc1`, for which the activation was -0.089% (inactive).

As to `Cc1ccc(OCc2nc(-c3cccnc3)no2)cc1C`, the activation was -0.108% (inactive).

For `C[C@H]1CN([C@@H](C)CO)C(=O)Cc2cc(NC(=O)C3CCCCC3)ccc2O[C@H]1CN(C)C(=O)NC1CCCCC1`, the activation was -0.185% (inactive).

On to `C[C@H](CO)N1C[C@H](C)[C@@H](CN(C)Cc2ccc(Oc3ccccc3)cc2)Oc2ccc(NC(=O)Nc3ccc(C(F)(F)F)cc3)cc2CC1=O`, for which the activation was -0.23% (inactive).

As to `C[C@@H]1CN([C@H](C)CO)C(=O)c2cc(C#Cc3cccc(F)c3)cnc2O[C@H]1CN(C)C(=O)C1CCC1`, the activation is 0.008% (inactive).

Regarding `C[C@@H]1CN([C@@H](C)CO)C(=O)c2cccc(NC(=O)c3ccc(-c4nccs4)cc3)c2O[C@@H]1CN(C)Cc1ccc(Cl)c(Cl)c1`, the activation is 0.039% (inactive).

In the case of `CCOC(=O)c1cccc(NC(=O)c2cc(C)nn2-c2ccccc2)c1`, the activation is 0.657% (inactive).

For `C[C@H](CO)N1C[C@H](C)[C@@H](CN(C)Cc2ccccc2)Oc2c(NC(=O)C3CC3)cccc2C1=O`, the activation was -0.084% (inactive).

With `CC12CCC(=O)N1C(C(=O)Nc1cc(Cl)ccc1N1CCOCC1)CS2` (stereo not given), the activation was -0.124% (inactive).

Regarding `CC(C)NC(=O)N(C)C[C@@H]1Oc2c(NC(=O)c3ccc(-c4nccs4)cc3)cccc2C(=O)N([C@@H](C)CO)C[C@H]1C`, the activation is 1.61% (inactive).

Turning to `c1ccc(Nc2nnc(-c3cccnc3)s2)cc1`, the activation was 0.863% (inactive).

For `C[C@H]1CN([C@@H](C)CO)C(=O)c2cc(NC(=O)CCN3CCOCC3)ccc2O[C@H]1CN(C)S(=O)(=O)c1ccc(Cl)cc1`, the activation is -0.234% (inactive).

Turning to `COc1ccc(NC(=O)Nc2ccc3c(c2)C(=O)N([C@@H](C)CO)C[C@H](C)[C@@H](CN(C)C)O3)cc1`, the activation was 1.42% (inactive).

Consider `C[C@H](CO)N1C[C@H](C)[C@H](CN(C)Cc2ccc(Cl)c(Cl)c2)Oc2c(NS(=O)(=O)c3cn(C)cn3)cccc2C1=O`, for which the activation was -0.123% (inactive).

The same assay, now with this note: HUVEC E-selectin immunostaining, at 21 µM (top of the series), percent of TNF-alpha response over vehicle.
On to `C[C@H]1CN([C@@H](C)CO)C(=O)c2cc(NC(=O)Nc3ccc(C(F)(F)F)cc3)ccc2O[C@@H]1CN(C)S(=O)(=O)c1ccccc1`, for which the activation is 0.012% (inactive).

`C[C@H](CO)N1C[C@H](C)[C@H](CN(C)C(=O)c2ccccc2)OCc2ccccc2-c2c(n(C)c3ccccc23)C1=O`: the activation was -0.093% (inactive).

As to `CC(C)NC(=O)N(C)C[C@H]1Oc2ccc(NC(=O)CCC(F)(F)F)cc2CC(=O)N([C@@H](C)CO)C[C@H]1C`, the activation is 5.5% (inactive).

As to `CC(C)NC(=O)Nc1cccc2c1O[C@H](CN(C)Cc1ccncc1)[C@@H](C)CN([C@H](C)CO)C2=O`, the activation was 0.115% (inactive).

With `C[C@H]1CN([C@@H](C)CO)C(=O)c2cc(NC(=O)Nc3ccccc3)ccc2O[C@@H]1CN(C)C(=O)Nc1ccc(C(F)(F)F)cc1`, the activation is 0.08% (inactive).

`COc1ccc(S(=O)(=O)N(C)C[C@H]2Oc3ccc(NC(=O)Nc4c(C)noc4C)cc3C(=O)N([C@@H](C)CO)C[C@@H]2C)cc1`: the activation is 2.96% (inactive).

For the molecule `C[C@@H]1CN([C@H](C)CO)C(=O)c2cc(NC(=O)CCCCCC(=O)Nc3ccccc3N)ccc2O[C@H]1CN(C)C(=O)Nc1ccc2c(c1)OCO2`, the activation is -0.113% (inactive).

Turning to `COc1ccc(CN(C)C[C@H]2Oc3ccc(NC(=O)CCCN(C)C)cc3C(=O)N([C@H](C)CO)C[C@H]2C)cc1`, the activation was -0.188% (inactive).

For the molecule `CC(C)NC(=O)N(C)C[C@@H]1Oc2ccc(NC(=O)Cn3cnnn3)cc2C(=O)N([C@H](C)CO)C[C@H]1C`, the activation was -0.15% (inactive).

Regarding `CC(C)NC(=O)N(C)C[C@@H]1Oc2c(NC(=O)c3ccc(-c4nccs4)cc3)cccc2C(=O)N([C@@H](C)CO)C[C@@H]1C`, the activation was -0.199% (inactive).
